The target in the first assay is hMAT2A (Homo sapiens (Human), UniProt P31153). Nature of the assay: Phosphate Sensor Fluorescence Assay (MAT2A enzyme inhibition). The conditions noted are these: L-methionine 500 uM, ATP 500 uM, class symbols. Format: biochemical. The method, boiled down:
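Recombinant MAT2A preincubated 15 min at room temperature with compound, then reacted 1 h at room temperature with 500 uM L-methionine and 500 uM ATP in Tris pH 7.5 buffer containing PNP/7-MEG.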
Chain of hMAT2A (P31153 whole entry): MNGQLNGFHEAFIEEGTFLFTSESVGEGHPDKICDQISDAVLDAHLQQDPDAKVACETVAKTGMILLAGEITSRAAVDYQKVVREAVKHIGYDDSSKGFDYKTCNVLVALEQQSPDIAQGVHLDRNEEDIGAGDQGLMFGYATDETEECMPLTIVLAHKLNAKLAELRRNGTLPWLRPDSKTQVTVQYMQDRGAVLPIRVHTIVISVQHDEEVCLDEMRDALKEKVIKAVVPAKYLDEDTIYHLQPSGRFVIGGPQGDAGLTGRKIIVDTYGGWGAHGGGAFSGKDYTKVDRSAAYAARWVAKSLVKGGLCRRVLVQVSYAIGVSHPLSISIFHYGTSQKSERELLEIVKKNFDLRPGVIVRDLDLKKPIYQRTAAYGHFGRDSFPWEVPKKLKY
Take `CNc1nc(=O)n(-c2ccccc2)c2cc(C(F)(F)F)c(Br)cc12` [Example 303, 6-bromo-4-(methylamino)-1-phenyl-7-(trifluoromethyl)quinazolin-2(1H)-one]: the IC50 (commonly the concentration that gives 50% inhibition) was < 0.2 µM.
Same read-out and setting: then `NC1CCN(c2nc(=O)n(-c3ccccc3)c3cc(Cl)ccc23)C1` (stereo not drawn) [Example 201, 4-(3-aminopyrrolidin-1-yl)-7-chloro-1-phenylquinazolin-2(1H)-one], with < 0.2 µM; and `O=c1nc(N[C@H]2C[C@@H]2F)c2ccc(OC(F)(F)F)cc2n1-c1ccccc1Cl` [Example 418, 1-(2-chlorophenyl)-4-(((1S,2S)-2-fluorocyclopropyl)amino)-7-(trifluoro-methoxy)quinazolin-2(1H)-one], with < 0.2 µM; and `Cc1ccc2c(NCC(F)F)nc(=O)n(-c3ccccc3)c2n1` [Example 398, 4-[(2,2-difluoroethyl)amino]-7-methyl-1-phenylpyrido[2,3-d]pyrimidin-2(1H)-one], with < 0.2 µM.
Still for that read-out and setting: then `O=c1[nH]c(=O)n(-c2cccnc2)c2cc(C(F)(F)F)ccc12` [Example 362, 1-(pyridin-3-yl)-7-(trifluoromethyl)-1,3-dihydroquinazoline-2,4-dione], with < 0.2 µM; and `N#Cc1cccc(-n2c(=O)nc(N)c3ccc(C(F)(F)F)nc32)c1` [Example 168, 3-(4-amino-2-oxo-7-(trifluoromethyl)-pyrido[2,3-d]pyrimidin-1(2H)-yl)-benzonitrile], with < 0.2 µM; and `CN(C)C(=O)CNc1nc(=O)n(-c2ccccc2)c2cc(Cl)ccc12` [Example 231, 2-[(7-chloro-2-oxo-1-phenyl-1,2-dihydroquinazolin-4-yl)amino]-N,N-dimethylacetamide], with 1 to 10 µM.
Regarding `CC1(Nc2nc(=O)n(-c3ccccc3Cl)c3nc(C(F)(F)F)ccc23)CC1` [Example 88, 1-(2-chlorophenyl)-4((1-methylcyclo-propyl)amino)-7-(trifluoromethyl)-pyrido[2,3-d]pyrimidin-2(1H)-one], the IC50 was < 0.2 µM.
Still for that read-out and setting: then `O=c1nc(NC2(CO)CC2)c2ccc(C(F)(F)F)nc2n1-c1ccccc1Cl` [Example 322, 1-(2-chlorophenyl)-4-{[(hydroxy-methyl)cyclopropyl]amino}-7-(trifluoro-methyl)-pyrido[2,3-d]pyrimidin-2(1H)-one], with < 0.2 µM; and `O=c1nc(NC2CC3(CCC3)C2)c2ccc(C(F)(F)F)nc2n1-c1ccccc1Cl` [Example 245, 1-(2-chlorophenyl)-4-(spiro[3.3]heptan-2-ylamino)-7-(trifluoromethyl)pyrido-[2,3-d]pyrimidin-2(1H)-one], with < 0.2 µM; and `COc1nc(=O)n(-c2ccccc2)c2cc(C(F)(F)F)ccc12` [Example 144, 4-methoxy-1-phenyl-7-(trifluoromethyl)-hydroquinazolin-2-one], with 0.2 to 0.5 µM.
On to `CNc1nc(=O)n(Cc2c[nH]cn2)c2cc(Cl)ccc12` [Example 262, 7-chloro-1-(imidazol-4-ylmethyl)-4-(methylamino)hydroquinazolin-2-one], for which the IC50 was < 0.2 µM.
Still for that read-out and setting: with `CNc1nc(=O)n(-c2cccnc2)c2cc(Cl)ccc12` [Example 114, 7-chloro-4-(methylamino)-1-(3-pyridyl)-hydroquinazolin-2-one] the figure was < 0.2 µM.
Still for that read-out and setting: with `O=c1nc(N2CC[C@@H](O)C2)c2ccc(C(F)(F)F)nc2n1-c1ccccc1` [Example 170, (R)-4-(3-hydroxypyrrolidin-1-yl)-1-phenyl-7-(trifluoromethyl)pyrido[2,3-d]-pyrimidin-2(1H)-one] the figure was < 0.2 µM.
Same read-out and setting: with `CNc1nc(=O)n(-c2nccn2C)c2cc(Cl)ccc12` [Example 188] the figure was 0.2 to 0.5 µM; with `CN(C)C(=O)CN(C)c1nc(=O)n(-c2ccccc2)c2cc(Cl)ccc12` [Example 220, 2-((7-chloro-2-oxo-1-phenyl-1,2-dihydroquinazolin-4-yl)(methyl)amino)-N,N-dimethylacetamide], 1 to 10 µM; with `CNc1nc(=O)n(-c2ncccn2)c2cc(C(F)(F)F)ccc12` [Example 123, 4-(methylamino)-1-pyrimidin-2-yl-7-(trifluoromethyl)hydroquinazolin-2-one], 0.2 to 0.5 µM.
As for `O=c1nc(Nc2ccccn2)c2ccc(C(F)(F)F)nc2n1-c1ccccc1Cl` [Example 256, 1-(2-chlorophenyl)-4-(2-pyridylamino)-7-(trifluoromethyl)pyrido[2,3-d]-pyrimidin-2(1H)-one], the IC50 is < 0.2 µM.
The same measure, in the same setting: with `Cc1ccc2c(NCC(F)(F)F)nc(=O)n(-c3ccccc3)c2n1` [Example 397, 7-methyl-1-phenyl-4-[(2,2,2-trifluoro-ethyl)amino]pyrido[2,3-d]pyrimidin-2(1H)-one] the figure was < 0.2 µM; with `COC(=O)C1CN(c2nc(=O)n(-c3ccccc3)c3cc(Cl)ccc23)C1` [Example 199, methyl 1-(7-chloro-2-oxo-1-phenyl-1,2-dihydroquinazolin-4-yl)azetidine-3-carboxylate], < 0.2 µM; with `CN(Cc1cccnc1)c1nc(=O)n(-c2ccccc2)c2cc(Cl)ccc12` [Example 235, 7-chloro-4-[methyl(pyridin-3-ylmethyl)-amino]-1-phenylhydroquinazolin-2-one], < 0.2 µM.
On the same count and under the same terms, then `Cc1ccccc1-n1c(=O)nc(NCC(F)(F)F)c2ccc(C(F)(F)F)cc21` [Example 126, 1-(2-methylphenyl)-4-[(2,2,2-trifluoro-ethyl)amino]-7-(trifluoromethyl)hydro-quinazolin-2-one], with < 0.2 µM; and `CNc1nc(=O)n(-c2ccccc2C)c2cc(C(F)(F)F)ccc12` [Example 129, 4-(methylamino)-1-(2-methylphenyl)-7-(trifluoromethyl)hydroquinazolin-2-one], with < 0.2 µM; and `CNc1nc(=O)n(-c2ccc3[nH]ncc3c2)c2cc(Cl)ccc12` [Example 328, 1-(1H-indazol-5-yl)-7-chloro-4-(methyl-amino)hydroquinazolin-2-one], with < 0.2 µM.
On the same count and under the same terms, then `CN(C)c1nc(=O)n(-c2ccc3[nH]cnc3c2)c2cc(Cl)ccc12` [Example 306, 1-benzimidazol-5-yl-4-(dimethylamino)-7-chlorohydroquinazolin-2-one], with < 0.2 µM.
`O=c1[nH]c(=O)n(-c2ccccc2)c2cc(C(F)F)ccc12` [Example 166, 7-(difluoromethyl)-1-phenyl-1,3-dihydroquinazoline-2,4-dione] gave an IC50 of 0.2 to 0.5 µM.
`CN(C)CCNc1nc(=O)n(-c2ccccc2Cl)c2nc(C(F)(F)F)ccc12` [Example 267, 4-{[2-(dimethylamino)ethyl]amino}-1-(2-chlorophenyl)-7-(trifluoromethyl)-pyrido[2,3-d]pyrimidin-2(1H)-one] showed an IC50 of 1 to 10 µM.
Still for that read-out and setting: then `CS(=O)(=O)CCNc1nc(=O)n(-c2ccccc2Cl)c2nc(C(F)(F)F)ccc12` [Example 264, 1-(2-chlorophenyl)-4-{[2-(methyl-sulfonyl)ethyl]amino}-7-(trifluoro-methyl)pyrido [2,3-d]pyrimidin-2 (1H)-one], with < 0.2 µM; and `CO[C@H]1C[C@@H](Nc2nc(=O)n(-c3ccccc3Cl)c3nc(C(F)(F)F)ccc23)C1` [Example 270, 1-(2-chlorophenyl)-4-(((1s,3s)-3-methoxycyclobutyl)amino)-7-(trifluoro-methyl)pyrido[2,3-d]pyrimidin-2(1H)-one], with < 0.2 µM; and `O=c1nc(N2CC[C@@H](O)C2)c2ccc(Cl)cc2n1-c1ccccc1Br` [Example 87, 4-((3R)-3-hydroxypyrrolidin-1-yl)-1-(2-bromophenyl)-7-chlorohydroquinazolin-2-one], with < 0.2 µM.
Still for that read-out and setting: then `CNc1nc(=O)n(-c2cnccc2Cl)c2nc(C(F)(F)F)ccc12` [Example 377, 1-(4-chloropyridin-3-yl)-4-(methyl-amino)-7-(trifluoromethyl)pyrido[2,3-d]pyrimidin-2(1H)-one], with < 0.2 µM.
Same read-out and setting: then `Cc1ncccc1-n1c(=O)[nH]c(=O)c2ccc(C(F)(F)F)nc21` [Example 364, 1-(2-methylpyridin-3-yl)-7-(trifluoro-methyl)pyrido[2,3-d]pyrimidine-2,4(1H,3H)-dione], with < 0.2 µM; and `N#CC1(Nc2nc(=O)n(-c3ccccc3Cl)c3nc(C(F)(F)F)ccc23)CCC1` [Example 277, 1-((1-(2-chlorophenyl)-2-oxo-7-(trifluoromethyl)-1,2-dihydropyrido[2,3-d]pyrimidin-4-yl)amino)cyclobutane-1-carbonitrile], with < 0.2 µM.
`O=c1nc(N2CC(O)C2)c2ccc(C(F)(F)F)nc2n1-c1ccccc1Cl` [Example 161, 1-(2-chlorophenyl)-4-(3-hydroxy-azetidinyl)-7-(trifluoromethyl)pyrido-[2,3-d]pyrimidin-2(1H)-one]: the IC50 is < 0.2 µM.
On the same count and under the same terms, with `CN(C)c1nc(=O)n(-c2cccc(CCCc3ccccc3)c2)c2cc(Cl)ccc12` [Example 227, 4-(dimethylamino)-7-chloro-1-[3-(3-phenylpropyl)phenyl]hydroquinazolin-2-one] the figure was < 0.2 µM; with `CNc1nc(=O)n(-c2ccnc(O)c2)c2nc(C(F)(F)F)ccc12` [Example 391, 1-(2-hydroxypyridin-4-yl)-4-(methyl-amino)-7-(trifluoromethyl)-pyrido[2,3-d]pyrimidin-2(1H)-one], < 0.2 µM.

The assay is the same for the next values; noted with them: L-methionine 500 uM, ATP 500 uM, numeric bound.
In the case of `CNc1nc(=O)n(-c2ccccc2)c2cc(Cl)cc(-n3nccn3)c12` [Example 209, 7-chloro-4-(methylamino)-1-phenyl-5-(1,2,3-triazol-2-yl)quinazolin-2(1H)-one], the half-maximal inhibitory concentration (IC50) was > 10 µM.
Still for that read-out and setting: with `CNc1nc(=O)n(-c2ncc(C)s2)c2cc(Cl)ccc12` [Example 116, 7-chloro-1-(5-methyl(1,3-thiazol-2-yl))-4-(methylamino)hydroquinazolin-2-one] the figure was > 10 µM; with `O=c1nc(O)c2c(C3=CCNC3)cc(Cl)cc2n1-c1ccccc1` [Example 289, 7-chloro-5-(2,5-dihydro-1H-pyrrol-3-yl)-4-hydroxy-1-phenylquinazolin-2(1H)-one], > 10 µM.

For the origin of these results see patent US11046691B1 (IDEAYA BIOSCIENCES, INC., priority 2018, dated 2021).
